# Data taken from patent publication US9718790B2, “Triazine derivative and pharmaceutical composition having an analgesic activity comprising the same” (SHIONOGI & CO., LTD., priority 2010, dated 2017).
# Target: human P2X3 receptor (Homo sapiens (Human), UniProt P56373)
# Assay: Evaluation of human P2X3 receptor inhibitory activity (Fluo-3 calcium fluorescence, FDSS 3000, ATP stimulation);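 note: stimulus was 50 nM ATP with fluorescence followed for 3 min, and the response per well was peak post-ATP fluorescence divided by the reading at measurement start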
# Format: cell-based
# Conditions: C6BU-1 cells stably expressing human P2X3 receptor
# human P2X3 receptor, sequence (P56373 whole entry): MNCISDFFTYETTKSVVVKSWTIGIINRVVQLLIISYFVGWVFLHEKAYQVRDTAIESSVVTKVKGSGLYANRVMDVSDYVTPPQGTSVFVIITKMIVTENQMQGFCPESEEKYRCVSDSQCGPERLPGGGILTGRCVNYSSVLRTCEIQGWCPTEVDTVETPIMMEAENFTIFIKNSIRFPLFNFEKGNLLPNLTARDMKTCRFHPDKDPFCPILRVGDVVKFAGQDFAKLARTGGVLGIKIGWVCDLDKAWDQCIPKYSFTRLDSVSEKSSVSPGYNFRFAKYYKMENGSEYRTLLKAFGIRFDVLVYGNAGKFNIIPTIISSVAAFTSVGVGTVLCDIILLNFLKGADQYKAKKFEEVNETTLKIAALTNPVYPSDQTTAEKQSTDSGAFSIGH
row,Compound,IC50
1,CC(C)Oc1ccc(/N=c2\[nH]c(=O)n(CC(=O)NC3CCOCC3)c(=O)n2Cc2ccc(Cl)cc2)cc1Cl [Compound I-0663],5 nM
2,CCn1c(=O)[nH]/c(=N\c2ccc(Oc3ccnc(C(=O)OC)c3)cc2)n(CC2CCC(C)(C)CC2)c1=O [Compound I-2205],9 nM
3,CCCOc1ccc(/N=c2\[nH]c(=O)n(C[C@H](C)C(=O)O)c(=O)n2Cc2ccc(Cl)cc2)cc1Cl [Compound I-0747],12 nM
4,Cc1cc(Oc2ccc(/N=c3\[nH]c(=O)n(C[C@H](O)CO)c(=O)n3Cc3ccc(Cl)cc3)cc2)ccn1 [Compound I-1987],7 nM
5,O=c1[nH]/c(=N\c2ccc(Oc3cc(CO)on3)cc2)n(Cc2ccc(Cl)cc2)c(=O)n1CCO [Compound I-2118],35 nM
6,COC(=O)c1cccc(Oc2ccc(/N=c3\[nH]c(=O)n(C)c(=O)n3Cc3ccc(Cl)cc3)cc2)c1 [Compound I-2059],56 nM
7,O=c1[nH]/c(=N\c2ccc(OC3CCC3)cc2)n(Cc2ccc(Cl)cc2)c(=O)n1CCO [Compound I-2010],54 nM
8,CCn1c(=O)[nH]/c(=N\c2ccc(Oc3nc(O)nc(O)n3)cc2)n(Cc2ccc(Cl)cc2)c1=O [Compound I-2222],5 nM
9,COc1ccc2cc(/N=c3\[nH]c(=O)n(CCC(=O)O)c(=O)n3Cc3ccc(C)cc3)ccc2n1 [Compound I-2137],134 nM
10,CCn1c(=O)[nH]/c(=N\c2ccc3oc(C)c(CC(=O)O)c3c2)n(Cc2ccc(Cl)cc2)c1=O [Compound I-2170],819 nM
11,CC(C)Oc1ccc(/N=c2\[nH]c(=O)n(C[C@H](C)C(=O)O)c(=O)n2Cc2ccc(F)cc2)cc1 [Compound I-0639],216 nM
12,CC(C)Oc1ccc(/N=c2\[nH]c(=O)n(CCN(CCO)C(=O)OC(C)(C)C)c(=O)n2Cc2ccc(Cl)cc2)cc1F [Compound I-2109],11 nM
13,Cc1ccc(Cn2c(=O)n(CCC(=O)O)c(=O)[nH]/c2=N\c2ccc(CC(C)C)c(C)c2)cc1 [Compound I-1224],54 nM
14,CC(C)Oc1ccc(/N=c2\[nH]c(=O)n([C@@H]3C[C@H]3C(=O)O)c(=O)n2Cc2ccc(Cl)cc2)cc1F [Compound I-0612],38 nM
15,Cc1[nH]c2ccc(/N=c3\[nH]c(=O)n(CCCO)c(=O)n3Cc3ccc(Cl)cc3)cc2c1C [Compound I-1949],5 nM
16,CC(C)Oc1ccc(/N=c2\[nH]c(=O)n(CCC(=O)Nc3ccc(OC(C)C)c(Cl)c3)c(=O)n2CC2CCC3(CC2)CC3)cc1Cl [Compound I-1450],448 nM
17,Cc1cc(/N=c2\[nH]c(=O)n(C[C@H]3COC(C)(C)O3)c(=O)n2Cc2ccc(Cl)cc2)ccc1OC(C)C [Compound I-0709],7 nM
18,CCn1c(=O)[nH]/c(=N\c2ccc(Oc3cccc(C(=O)OC)n3)cc2)n(Cc2ccc(Cl)cc2)c1=O [Compound I-2067],21 nM
19,O=c1[nH]/c(=N\c2ccc(Oc3cncc(CO)c3)cc2)n(Cc2ccc(Cl)cc2)c(=O)n1CCOC1CCCCO1 (stereo not drawn) [Compound I-2077],3 nM
20,CCn1c(=O)[nH]/c(=N\c2ccc(Oc3ccsc3C(=O)OC)cc2)n(Cc2ccc(Cl)cc2)c1=O [Compound I-2037],340 nM
21,Cc1[nH]c2ccc(/N=c3\[nH]c(=O)n(CCOC4CCCCO4)c(=O)n3Cc3ccc(Cl)cc3)cc2c1C (stereo not drawn) [Compound I-2038],13 nM
22,CCn1c(=O)[nH]/c(=N\c2ccc(Oc3cccc(NC(C)=O)c3)cc2)n(Cc2ccc(Cl)cc2)c1=O [Compound I-2139],22 nM

# Same assay, conditions: C6BU-1 cells stably expressing human P2X3 receptor, Fluo-3 fluorescence, FDSS 3000
row,Compound,IC50
1,C[C@@H](C(=O)O)[C@H](C)n1c(=O)[nH]/c(=N\c2ccc3oc4c(c3c2)CCCC4)n(Cc2ccc(Cl)cc2)c1=O [Compound I-1748],236 nM
2,CCCOc1ccc(/N=c2\[nH]c(=O)n(CC3(C(=O)OCC)CC3)c(=O)n2Cc2ccc(C)cc2)cc1 [Compound I-0912],10 nM
3,CC(C)=Cc1ccc(/N=c2\[nH]c(=O)n(C[C@H](C)C(=O)O)c(=O)n2Cc2ccc(Cl)cc2)cc1Cl [Compound I-0959],7 nM
4,CCc1ccc(Cn2c(=O)n(C[C@H](C)C(=O)OC)c(=O)[nH]/c2=N\c2ccc(OC(C)C)cc2)cc1 [Compound I-1133],51 nM
5,C=Cc1ccc(Cn2c(=O)n(C[C@H](C)C(=O)O)c(=O)[nH]/c2=N\c2ccc(OC(C)C)cc2)cc1 [Compound I-1139],52 nM
6,C[C@@H](Oc1ccc(/N=c2\[nH]c(=O)n(C[C@H](O)CO)c(=O)n2Cc2ccc(Cl)cc2)cc1)C(F)(F)F [Compound I-1845],33 nM
7,CCCCOc1ccc(/N=c2\[nH]c(=O)n(CC3(C(=O)OCC)CC3)c(=O)n2Cc2ccc(Cl)cc2)cc1 [Compound I-1005],31 nM
8,CCOc1ccc(/N=c2\[nH]c(=O)n(C[C@H](C)C(=O)OC)c(=O)n2Cc2ccc(C)cc2)cc1Br [Compound I-1173],9 nM
9,C[C@@H](Cn1c(=O)[nH]/c(=N\c2ccc(N3CCCCC3)cc2)n(Cc2ccc(Cl)cc2)c1=O)C(=O)O [Compound I-0962],31 nM
10,CCc1nc2ccc(/N=c3\[nH]c(=O)n(CC(C)(C)C(=O)OC)c(=O)n3Cc3ccc(Cl)cc3)cc2s1 [Compound I-1572],5 nM
11,CC[C@@H](C)Oc1ccc(/N=c2\[nH]c(=O)n([C@H](C)CC(=O)O)c(=O)n2Cc2ccc(C)cc2)cc1 [Compound I-0936],65 nM
12,CCCOc1ccc(/N=c2\[nH]c(=O)n([C@@H](C)[C@@H](C)C(=O)O)c(=O)n2Cc2ccc(C)cc2)cc1 [Compound I-0929],45 nM
13,C[C@@H](C(=O)O)[C@H](C)n1c(=O)[nH]/c(=N\c2ccc3nc(-c4ccccc4)sc3c2)n(Cc2ccc(Cl)cc2)c1=O [Compound I-1829],92 nM
14,CC[C@H](C)COc1ccc(/N=c2\[nH]c(=O)n(C[C@H](C)C(=O)O)c(=O)n2Cc2ccc(C)cc2)cc1 [Compound I-1059],123 nM
15,CCN(c1ccc(/N=c2\[nH]c(=O)n(C[C@H](C)C(=O)OC)c(=O)n2Cc2ccc(Cl)cc2)cc1)C(C)C [Compound I-0952],741 nM

# Same assay, conditions: human P2X3 receptor, Test Example 1
row,Compound,IC50
1,CCn1c(=O)[nH]/c(=N\c2ccc(Oc3cnccn3)cc2)n(Cc2ccc(Cl)cc2)c1=O [Compound I-2642],11 nM
2,O=c1[nH]/c(=N\c2ccc(Oc3ncccn3)cc2)n(Cc2ccc(Cl)cc2)c(=O)n1C[C@H](O)CO [Compound I-2418],12 nM
3,Cn1c(=O)[nH]/c(=N\c2ccc(Oc3nc(C(=O)O)cs3)cc2)n(Cc2ccc(Cl)cc2)c1=O [Compound I-2410],36 nM
4,COC(=O)CCn1c(=O)[nH]/c(=N\c2ccc(Oc3ncccn3)cc2)n(Cc2ccc(C)cc2)c1=O [Compound I-2551],4 nM
5,Cc1cncc(Oc2ccc(/N=c3\[nH]c(=O)n(CC(CO)CO)c(=O)n3Cc3ccc(Cl)cc3)cc2)n1 [Compound I-2709],6 nM
6,CCn1c(=O)[nH]/c(=N\c2ccc(Oc3nc(C(=O)O)cs3)cc2)n(Cc2ccc(F)cc2)c1=O [Compound I-2568],87 nM
7,CCn1c(=O)[nH]/c(=N\c2ccc(Oc3nc(C(=O)O)c(C)s3)cc2)n(Cc2ccc(Cl)cc2)c1=O [Compound I-2450],8 nM
8,NC(=O)CCn1c(=O)[nH]/c(=N\c2ccc(Oc3ccon3)cc2)n(Cc2ccc(Cl)cc2)c1=O [Compound I-2443],24 nM
9,CCn1c(=O)[nH]/c(=N\c2ccc(Oc3cnc(C(=O)O)cn3)cc2)n(Cc2ccc(Cl)cc2)c1=O [Compound I-2296],5 nM
10,Cc1ccc(Cn2c(=O)n(C)c(=O)[nH]/c2=N\c2ccc(Oc3ccc(C(=O)O)cn3)cc2)cc1 [Compound I-2401],18 nM
11,O=c1[nH]/c(=N\c2ccc(Oc3nccs3)cc2)n(Cc2ccc(Cl)cc2)c(=O)n1C[C@@H](O)CO [Compound I-2506],14 nM
12,Cc1ccc(Cn2c(=O)n(C)c(=O)[nH]/c2=N\c2ccc(Oc3nccc(C(=O)O)n3)cc2)cc1 [Compound I-2403],61 nM
13,CCn1c(=O)[nH]/c(=N\c2ccc(O[C@H]3CN[C@H](C(=O)OC)C3)cc2)n(Cc2ccc(Cl)cc2)c1=O [Compound I-2277],107 nM
14,COCCn1c(=O)[nH]/c(=N\c2ccc(Oc3cccc(C(=O)O)n3)cc2)n(Cc2ccc(Cl)cc2)c1=O [Compound I-2548],6 nM
15,"CCn1c(SC)n/c(=N\c2ccc(Oc3cncc(C(=O)OC)c3)cc2)n(Cc2ccc(Cl)cc2)c1=O [Compound I-2264, 1-(4-chlorobenzyl)-3-ethyl-4-methylthio-6-[4-(5-methoxycarbonyl-3-pyridyloxy)phenylimino]-1,3,5-triazine-2-(1H)-one]",558 nM
16,O=c1[nH]/c(=N\c2ccc(Oc3ccon3)cc2)n(Cc2ccc(Cl)cc2)c(=O)n1C[C@@H](O)CO [Compound I-2408],14 nM
17,CCOC(=O)Cn1c(=O)[nH]/c(=N\c2ccc(Oc3cccc(F)n3)cc2)n(Cc2ccc(Cl)cc2)c1=O [Compound I-2562],4 nM
18,NC(=O)Cn1c(=O)[nH]/c(=N\c2ccc(Oc3nccs3)cc2)n(Cc2ccc(Cl)cc2)c1=O [Compound I-2644],17 nM
19,Cn1c(=O)[nH]/c(=N\c2ccc(Oc3ccnc(C(N)=O)c3)cc2)n(Cc2ccc(Cl)cc2)c1=O [Compound I-2378],6 nM
20,CCn1c(=O)[nH]/c(=N\c2ccc(Oc3cccc(C(=O)O)c3)cc2)n(C[C@H]2CC[C@H](C)CC2)c1=O [Compound I-2354],3 nM
21,CCn1c(=O)[nH]/c(=N\c2ccc(Oc3ccc(C#N)nc3)cc2)n(Cc2ccc(Cl)cn2)c1=O [Compound I-2375],22 nM
22,O=C(Cn1c(=O)[nH]/c(=N\c2ccc(Oc3ccon3)cc2)n(Cc2ccc(Cl)cc2)c1=O)NCC(F)(F)F [Compound I-2681],4 nM
23,O=c1[nH]/c(=N\c2ccc(Oc3ccsn3)cc2)n(Cc2ccc(Cl)cc2)c(=O)n1CC(O)CO (stereo not drawn) [Compound I-2514],11 nM
24,"CCn1c(=S)[nH]/c(=N\c2ccc(Oc3cncc(C(=O)OC)c3)cc2)n(Cc2ccc(Cl)cc2)c1=O [Compound I-2262, 1-(4-chlorobenzyl)-3-ethyl-6-[4-(5-methoxycarbonyl-3-pyridyloxy)phenylimino]-4-thioxo-1,3,5-triazinane-2-one]",17 nM
25,CCn1c(=O)[nH]/c(=N\c2ccc(Oc3ccnc(C(N)=O)c3)cc2)n(Cc2ccc(Cl)cn2)c1=O [Compound I-2237],20 nM
26,CCn1c(=O)[nH]/c(=N\c2ccc(Oc3ccc(C(=O)O)nn3)cc2)n(Cc2ccc(Cl)cc2)c1=O [Compound I-2273],12 nM
